How the values were obtained:
S91 Cloudman melanoma = test: PDT of implanted S91 tumors; assay type: in vivo, DBA/2 mice
Excerpt: The mice used in the present study were form two sources. Dark toxicity, biodistribution and farmacokinetic studies employed DBA/2 mice, weighing 20-30 g, from the animal breeding facility at the Faculty of Biochemistry, Biophysics and Biotechnology, Jagiellonian University, Krakow. The mice were kept on a standard laboratory diet with free access to drinking water. The use of such animals for experimental purposes was approved by the Jagiellonian University Committee for Ethics of Experiments on Animals (decision No. 384/99). Such mice were also employed in PDT.
The tumors grew to reach 5 mm in about one week after the implantation. No spontaneous necrosis was observed. The treatment was initiated when the tumor attained 5 mm in diameter in each animal. The day the tumors reached the treatment size, the mice were injected via i.p. with a dose of 10 mg/kg of Luzitin-C12Et in PEG400. At 24 h post-injection, the mice were anesthetized with ketamine and xylazine, and restrained in plastic holders, then treated with different light doses with the Hamamatsu 748 nm diode laser described before. […] The mice were checked daily, and the size of the tumors was measured and recorded.

[1] = test system: SKMEL 188 (human melanoma); test: Cell photosensitization, filtered halogen lamp, MTT; assay type: cell-based; details: [Luzitin-Cl] = 20 μM
Procedure: (§1) Irradiation in in vitro experiments was performed using either a halogen lamp or a laser source. In the first case, a 500 W halogen lamp was placed 50 cm from the irradiated plate to insure a homogeneous irradiation. A cooled water filter (d=35 mm) and a 600 nm cut off filter were placed between the lamp and samples. The fluence rate reaching samples was 3 mW/cm^2. The emission spectrum of the halogen lamp was recorded using a spectroradiometer IL2000 (Spectrocube), FIG. 1. In the second case, three Lynx external cavity diode lasers TEC 500 powered by PilotPC 500 Laser Controllers (Sacher Lasertechnik, Marburg, Germany) were employed. The laser energies were stable at 40 mW for the 748 nm laser, 10 mW for the 649 laser and 10 mW for the 633 laser. The laser energies were regularly measured with a Coherent LaserCheck. In some in vitro experiments, the laser light was focused on an optical fiber through a collimator in microbench, and delivered to the cells. This system reduced the 748 nm laser light to 30 mW.
The cell lines employed in halogen lamp irradiation were the MCF7 (human breast carcinoma), SKMEL 188 (human melanoma) and S91/I3 (mouse melanoma) cells. They were used both for cytotoxicity and photocytotoxicity experiments. MCF7 cells were grown supplemented with 10% fetal calf (FBS) serum, 25 units/ml of penicillin, and 25 μg/ml of streptomycin. Human melanoma cells SKMEL-188 were grown in F10 medium supplemented with 10% fetal calf serum (FCS), 100 units/ml of penicillin, and 100 μg/ml of streptomycin. I3 subline of Cloudman S91 melanoma cells were cultured in RPMI 1640 medium supplemented with 100 units/ml of penicillin, 100 μg/ml streptomycin and 5% fetal calf serum (FCS) (Gibco BRL). […]
Cytotoxicity. Cell metabolic efficiency and viability were determined by the uptake and reduction of 3-(4,5-dimethylthiazol-2-yl)-2,5-diphenyl tetrazolium bromide (MTT) to an insoluble formazan dye by cellular microsomal enzymes. […] The 96-well culture plate was shaken for 0.5 min at room temperature and immediately read for optical density at 560 nm using an ELISA reader (GENios Plus; Tecan Trading AG, Switzerland). The cell survival was expressed by the absorbance changes of the formazan salt, and survival rate was given as the percent ratio of viable treated cells vs. the number of viable untreated cells. Number of cells was determined from linear regression of a calibration curve.
Cell photosensitization. […] The values were obtained from three independent experiments and expressed as percent of cell survival with reference to control cells, which were manipulated in the same manner but without incubation with photosensitizer and without illumination.

[2] = test system: MCF7 (human breast carcinoma); test: as above; assay type: cell-based
Procedure: as §1
(§2) The cell lines employed in halogen lamp irradiation were the MCF7 (human breast carcinoma), SKMEL 188 (human melanoma) and S91/I3 (mouse melanoma) cells. They were used both for cytotoxicity and photocytotoxicity experiments. MCF7 cells were grown supplemented with 10% fetal calf (FBS) serum, 25 units/ml of penicillin, and 25 μg/ml of streptomycin. Human melanoma cells SKMEL-188 were grown in F10 medium supplemented with 10% fetal calf serum (FCS), 100 units/ml of penicillin, and 100 μg/ml of streptomycin. I3 subline of Cloudman S91 melanoma cells were cultured in RPMI 1640 medium supplemented with 100 units/ml of penicillin, 100 μg/ml streptomycin and 5% fetal calf serum (FCS) (Gibco BRL). All cell lines were cultivated as monolayer in Petri dishes of 60 mm diameter and incubated at 37° C. in a humid atmosphere containing 5% CO2.
(§3) Cytotoxicity. Cell metabolic efficiency and viability were determined by the uptake and reduction of 3-(4,5-dimethylthiazol-2-yl)-2,5-diphenyl tetrazolium bromide (MTT) to an insoluble formazan dye by cellular microsomal enzymes. The cell lines were grown in RPMI medium with 10% fetal calf serum, penicillin and streptomycin. Cells were maintained in 5% CO2, 95% air and 100% humidity. For determining cytotoxicity, these cells were plated in 96-well plates at a density of 1×10^4 cells well in complete media. After 24 h, the cells were incubated with photosensitizers at different concentrations (0.25 up to 50 μM) for 18 hours at 37° C. The cells were then washed twice with PBS and incubated in growth medium at 37° C. for 24 h. Next, the medium was replaced by 100 μl of fresh medium and 20 μl of MTT, and the cells were incubated with MTT for 3 h, with a final concentration of 0.5 mg/ml. Then the culture medium was replaced with DMSO-methanol solution (1:1) to dissolve the blue formazan crystals. The 96-well culture plate was shaken for 0.5 min at room temperature and immediately read for optical density at 560 nm using an ELISA reader (GENios Plus; Tecan Trading AG, Switzerland). The cell survival was expressed by the absorbance changes of the formazan salt, and survival rate was given as the percent ratio of viable treated cells vs. the number of viable untreated cells. Number of cells was determined from linear regression of a calibration curve.
(§4) Cell photosensitization. SKMEL 188, S91 and MCF7 cells were prepared as described above. […] The cells were incubated for 12 h at 37° C. and then irradiated at a 0.53 mW cm^2 fluence rate and in doses ranging from 0.1 to 0.64 J cm^2. We recall that photosensitizer uses only ca. ⅕ of the available fluence rate of the filtered halogen lamp. The MTT test was performed 24 h after irradiation. The values were obtained from three independent experiments and expressed as percent of cell survival with reference to control cells, which were manipulated in the same manner but without incubation with photosensitizer and without illumination. […]

S91 (mouse melanoma) = test: as above; assay type: cell-based; details: [Luzitin-Cl] = 20 μM
Procedure: as §1, §2, §3, §4

[3] = [Luzitin-Cl] = 20 μM, filtered halogen lamp

With CCNS(=O)(=O)c1ccc(Cl)c(-c2c3nc(c(-c4c(Cl)ccc(S(=O)(=O)NCC)c4Cl)c4ccc([nH]4)c(-c4c(Cl)ccc(S(=O)(=O)NCC)c4Cl)c4nc(c(-c5c(Cl)ccc(S(=O)(=O)NCC)c5Cl)c5ccc2[nH]5)CC4)CC3)c1Cl [Luzitin-Cl2Et, 5,10,15,20-tetrakis(2,6-dichloro-3-N-ethylsulfamoylphenyl)bacteriochlorin] the “tumor response after PDT” value (S91 Cloudman melanoma; 10 mg/kg i.p. in PEG400, 24 h post-injection, 748 nm laser, single session) was “long-lasting tumor regression” and the “necrosis of irradiated tumor area” value (S91 Cloudman melanoma; within minutes of the irradiation) was “evident signals of necroses”.

In the case of O=S(=O)(O)c1ccc(Cl)c(-c2c3nc(c(-c4cc(S(=O)(=O)O)ccc4Cl)c4ccc([nH]4)c(-c4cc(S(=O)(=O)O)ccc4Cl)c4nc(c(-c5cc(S(=O)(=O)O)ccc5Cl)c5ccc2[nH]5)CC4)CC3)c1 [Luzitin-Cl, 5,10,15,20-tetrakis(2-chloro-5-sulfonylphenyl)bacteriochlorin], the “LD50 (light dose to kill 50% of the cells)” value [1] is reported as 0.1 J/cm^2, the “LD90 (light dose to kill 90% of the cells)” value [1] is reported as 0.32 J/cm^2 and the cell kill ([2]; 5 μM, filtered halogen light 0.6 J/cm^2, 12 h incubation) is reported as 100%. For the same compound, the “LD50 (light dose to kill 50% of the cells)” value [2, 3] was 0.08 J/cm^2, the “LD90 (light dose to kill 90% of the cells)” value [2, 3] was 0.25 J/cm^2 and the “LD50 (light dose to kill 50% of the cells)” value (S91 (mouse melanoma)) was 0.15 J/cm^2. The “LD90 (light dose to kill 90% of the cells)” value (S91 (mouse melanoma)) was 0.3 J/cm^2.

Source: US9670217B2, “Process for preparing chlorins and their pharmaceutical uses” (UNIVERSIDADE DE COIMBRA, priority 2008, dated 2017)
